# Values quoted from earlier work, collected in US7611733B2, “Nanoparticle formulations of platinum compounds” (priority 2004, dated 2009).
# Where a name gives a salt, the structure may show the parent alone.
# Test system: variety of tumor cell lines
structure (smiles),measurement,value
"[NH2][Pt+]([NH2])([Cl])[NH]CCCCCC[NH2+]CC[NH2+]CCCCCC[NH][Pt+]([NH2])([NH2])[Cl] [Formula II, bis{trans(diammine)(chloro)platinum(II)}μ(1,16-diamino-7,10-diazahexadecane-N1,N16) dinitrate salt. 2HNO3]",antitumor activity,outstanding antitumor activity
